Results reported in patent US9861706B2, “GLP-1 receptor agonist peptide gastrin conjugates” (priority 2011, dated 2018).
Like-named read-outs stand apart in the source and are kept apart here. Square brackets hold non-standard residues; d marks the D form. Ends that are not written are not given here. AEEA = NCCOCCOCC(=O)O

T1: human CCK-B receptor (human, UniProt P32239 1-447)
T1 sequence (looked up): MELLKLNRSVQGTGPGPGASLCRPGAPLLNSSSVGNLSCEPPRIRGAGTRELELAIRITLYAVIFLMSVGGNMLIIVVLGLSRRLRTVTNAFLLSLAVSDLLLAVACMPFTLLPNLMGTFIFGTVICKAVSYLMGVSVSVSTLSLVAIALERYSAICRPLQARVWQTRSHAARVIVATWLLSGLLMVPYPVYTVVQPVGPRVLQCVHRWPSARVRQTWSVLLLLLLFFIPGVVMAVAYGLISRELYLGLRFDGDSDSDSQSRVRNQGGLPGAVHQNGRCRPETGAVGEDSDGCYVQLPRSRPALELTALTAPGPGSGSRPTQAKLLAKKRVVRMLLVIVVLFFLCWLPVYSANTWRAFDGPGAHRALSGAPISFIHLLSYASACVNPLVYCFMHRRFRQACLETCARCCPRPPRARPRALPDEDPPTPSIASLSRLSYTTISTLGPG

B1: Compound 38 (peptide)
peptide: HGEGTFTSDLSKQLEEEAVRLFIECLKNXXYGWLDF
modifications: not fully specified; C(PEG5K) at position 25; 8Ado at positions 29 and 30; C-terminal amide (-NH2)

Tests used:
[1] = Pharmacokinetics in mice after single subcutaneous dose; assay type: in vivo, C57BI L/6J mice; details: C57BL/6J, mouse, sc
Procedure: At each time point, samples from two mice were taken. […] Plasma samples were analyzed after solid phase extraction (SPE) by liquid chromatography mass spectrometry (LC-MS/MS).

human CCK-B receptor = molecular target: T1, human CCK-B receptor; experiment: cell-based or functional assay
db/db mice = experiment: Three weeks in vivo db/db mouse study
Procedure: Treatment Db/db mice were stratified to various treatment groups according to HbA1c levels. Mice were treated once daily with subcutaneous (SC) injections for a total of 21 days. Injection volume was 5 ml/kg. During the study body weights (BW) were recorded daily and used to administer the body weight-corrected doses of peptide. OGTT On day 16, an oral glucose tolerance test was performed in the animals. Blood glucose was measured before glucose (at t=0, baseline) and after glucose administration up to 2 hrs. Termination At termination the blood glucose levels were measured, and blood samples were analyzed for HbA1c levels. Measurements Whole blood glucose concentration (mM) was determined by the immobilized glucose oxidase method (Elite Autoanalyser, Bayer, Denmark). Blood samples were analyzed for HbA1c using the Cobas c111 analyzer (Roche Diagnostics, Mannheim, Germany).

human GLP-1 receptor = human GLP-1 receptor (human, UniProt P43220 24-463); experiment: cell-based or functional assay
Chain of human GLP-1 receptor (P43220 24-463): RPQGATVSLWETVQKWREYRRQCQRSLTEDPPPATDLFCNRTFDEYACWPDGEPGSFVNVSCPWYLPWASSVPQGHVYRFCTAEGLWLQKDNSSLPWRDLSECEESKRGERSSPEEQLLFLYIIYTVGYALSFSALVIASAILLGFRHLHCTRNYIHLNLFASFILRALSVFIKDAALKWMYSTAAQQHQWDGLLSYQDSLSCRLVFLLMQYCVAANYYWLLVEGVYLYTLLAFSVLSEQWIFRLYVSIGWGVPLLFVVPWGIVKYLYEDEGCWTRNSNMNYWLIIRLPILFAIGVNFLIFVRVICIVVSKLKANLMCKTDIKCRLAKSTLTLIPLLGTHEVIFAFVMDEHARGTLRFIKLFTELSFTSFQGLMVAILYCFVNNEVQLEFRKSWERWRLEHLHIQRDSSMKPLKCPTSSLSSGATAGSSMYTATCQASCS

[2] = SC 100 nmol/kg once daily, 21 days treatment

| Molecule | half-life ([1]; in vivo, 100 nmol/kg) | EC50, p-ERK in HEK293 cells stably expressing human CCK-B R (human CCK-B receptor) | EC50, cAMP induction in HEK293 cells expressing human GLP-1 R (human GLP-1 receptor) | also measured |
| --- | --- | --- | --- | --- |
| CC[C@H](C)[C@H](NC(=O)[C@H](Cc1ccccc1)NC(=O)[C@H](CC(C)C)NC(=O)[C@H](CCCNC(=N)N)NC(=O)[C@@H](NC(=O)[C@H](C)NC(=O)[C@H](CCC(=O)O)NC(=O)[C@H](CCC(=O)O)NC(=O)[C@H](CCC(=O)O)NC(=O)[C@H](CC(C)C)NC(=O)[C@H](Cc1ccc(O)cc1)NC(=O)[C@H](CCCCN)NC(=O)[C@H](CO)NC(=O)[C@H](CC(C)C)NC(=O)[C@H](CCC(=O)O)NC(=O)[C@H](CO)NC(=O)[C@@H](NC(=O)[C@H](Cc1ccccc1)NC(=O)[C@@H](NC(=O)CNC(=O)[C@H](CCC(=O)O)NC(=O)CNC(=O)[C@@H](N)Cc1c[nH]cn1)[C@@H](C)O)[C@@H](C)O)C(C)C)C(=O)N[C@@H](CCC(=O)O)C(=O)N[C@@H](Cc1ccccc1)C(=O)N[C@@H](CC(C)C)C(=O)N[C@@H](CCCCN)C(=O)N[C@@H](CC(=O)O)C(=O)N[C@@H](Cc1ccc(O)cc1)C(=O)NCC(=O)N[C@@H](Cc1c[nH]c2ccccc12)C(=O)N[C@@H](CC(C)C)C(=O)N[C@@H](CC(=O)O)C(=O)N[C@@H](Cc1ccccc1)C(N)=O [Compound 12] | 5 h |  |  |  |
| CCCCCCCCCCCCCCCC(=O)N[C@@H](CCC(=O)NCCCC[C@H](NC(=O)[C@H](CCC(=O)O)NC(=O)[C@@H](NC(=O)[C@H](Cc1ccccc1)NC(=O)[C@H](CC(C)C)NC(=O)[C@H](CCCNC(=N)N)NC(=O)[C@@H](NC(=O)[C@H](C)NC(=O)[C@H](CCC(=O)O)NC(=O)[C@H](CCC(=O)O)NC(=O)[C@H](CCC(=O)O)NC(=O)[C@H](CC(C)C)NC(=O)[C@H](Cc1ccc(O)cc1)NC(=O)[C@H](CCCCN)NC(=O)[C@H](CO)NC(=O)[C@H](CC(C)C)NC(=O)[C@H](CCC(=O)O)NC(=O)[C@H](CO)NC(=O)[C@@H](NC(=O)[C@H](Cc1ccccc1)NC(=O)[C@@H](NC(=O)CNC(=O)[C@H](CCC(=O)O)NC(=O)CNC(=O)[C@@H](N)Cc1c[nH]cn1)[C@@H](C)O)[C@@H](C)O)C(C)C)[C@@H](C)CC)C(=O)N[C@@H](CC(C)C)C(=O)N[C@@H](CCCCN)C(=O)NCCOCCOCC(=O)NCCOCCOCC(=O)N[C@@H](Cc1ccc(O)cc1)C(=O)NCC(=O)N[C@@H](Cc1c[nH]c2ccccc12)C(=O)N[C@@H](CC(C)C)C(=O)N[C@@H](CC(=O)O)C(=O)N[C@@H](Cc1ccccc1)C(N)=O)C(=O)O [Compound 7] |  |  |  | half-life ([1]; s.c. administration of 100 nmol/kg in mice, plasma, read-out: T1/2 (converted)): 6.2 h |
| h[Leu15]Gastrin17 (from UniProt P01350 76-92) (peptide) |  | 2.89 nM |  |  |
| CC[C@H](C)[C@H](NC(=O)[C@H](Cc1ccccc1)NC(=O)[C@H](CC(C)C)NC(=O)[C@H](CCCNC(=N)N)NC(=O)[C@@H](NC(=O)[C@H](C)NC(=O)[C@H](CCC(=O)O)NC(=O)[C@H](CCC(=O)O)NC(=O)[C@H](CCC(=O)O)NC(=O)[C@H](CC(C)C)NC(=O)[C@H](Cc1ccc(O)cc1)NC(=O)[C@H](CCCCN)NC(=O)[C@H](CO)NC(=O)[C@H](CC(C)C)NC(=O)[C@H](CCC(=O)O)NC(=O)[C@H](CO)NC(=O)[C@@H](NC(=O)[C@H](Cc1ccccc1)NC(=O)[C@@H](NC(=O)CNC(=O)[C@H](CCC(=O)O)NC(=O)CNC(=O)[C@@H](N)Cc1c[nH]cn1)[C@@H](C)O)[C@@H](C)O)C(C)C)C(=O)N[C@@H](CCC(=O)O)C(=O)N[C@@H](Cc1c[nH]c2ccccc12)C(=O)N[C@@H](CC(C)C)C(=O)N[C@@H](CCCCN)C(=O)N[C@@H](CC(=O)O)C(=O)N[C@@H](Cc1ccc(O)cc1)C(=O)NCC(=O)N[C@@H](Cc1c[nH]c2ccccc12)C(=O)N[C@@H](CC(C)C)C(=O)N[C@@H](CC(=O)O)C(=O)N[C@@H](Cc1ccccc1)C(N)=O [Compound 23] | 6.7 h |  |  | body weight gain (in words) (db/db mice; 3 week course of the study): lowered the body weight gain; Fasted BG level (mM) (db/db mice; SC 100 nmol/kg once daily, 16 days treatment): ++ ((++) indicates fasted BG between 6 and 8 mM); Delta-BW (g) (db/db mice; [2]): ++ ((++) indicates delta BW between 4 and 6 g); Delta-HbA1c (%) (db/db mice; [2]): +++ ((+++) indicates delta-HbA1c level below 0%); OGTT, AUC (mM*min) (db/db mice; SC 100 nmol/kg once daily, after 16 days of treatment): ++ ((++) indicates OGTT AUC between 1000 and 2000M*min); plasma levels of HbA1c (in words) (db/db mice; after 3 weeks treatment): lowered the plasma levels of HbA1c; fasting blood glucose levels (in words) (db/db mice; after 16 days treatment): lowered the fasting blood glucose levels; area under the glucose concentration curve (AUC) following an oral glucose challenge (in words) (db/db mice; day 16): lowered the area under the glucose concentration curve (AUC) |
| H-HGEGTFTSELSKYLEEEAVRLFIEWLKNYGWLDF-NH2 [Compound 22] |  |  |  | half-life ([1]; in vivo, s.c. administration of 100 nmol/kg in mice, plasma, read-out: T1/2 (converted)): 8.2 h |
| CC[C@H](C)[C@H](NC(=O)[C@H](Cc1ccccc1)NC(=O)[C@H](CC(C)C)NC(=O)[C@H](CCCNC(=N)N)NC(=O)[C@@H](NC(=O)[C@H](C)NC(=O)[C@H](CCC(=O)O)NC(=O)[C@H](CCC(=O)O)NC(=O)[C@H](CCC(=O)O)NC(=O)[C@H](CC(C)C)NC(=O)[C@H](Cc1ccc(O)cc1)NC(=O)[C@H](CCCCN)NC(=O)[C@H](CO)NC(=O)[C@H](CC(C)C)NC(=O)[C@H](CCC(=O)O)NC(=O)[C@H](CO)NC(=O)[C@@H](NC(=O)[C@H](Cc1ccccc1)NC(=O)[C@@H](NC(=O)CNC(=O)[C@H](CCC(=O)O)NC(=O)CNC(=O)[C@@H](N)Cc1c[nH]cn1)[C@@H](C)O)[C@@H](C)O)C(C)C)C(=O)N[C@@H](CCC(=O)O)C(=O)N[C@@H](Cc1ccccc1)C(=O)N[C@@H](CC(C)C)C(=O)N[C@@H](CCCCN)C(=O)N[C@@H](CC(=O)O)C(=O)NCCOCCOCC(=O)NCCOCCOCC(=O)N[C@@H](Cc1ccc(O)cc1)C(=O)NCC(=O)N[C@@H](Cc1c[nH]c2ccccc12)C(=O)N[C@@H](CC(C)C)C(=O)N[C@@H](CC(=O)O)C(=O)N[C@@H](Cc1ccccc1)C(N)=O [Compound 19] | 2.4 h |  |  |  |
| B1 |  | 61 nM | 0.037 nM |  |
| HGEGTFTSELSKYLEEEAVRLFIEWLKNYGWLDF-NH2 [Compound 22] |  | 31 nM | 0.085 nM |  |
| HGEGTFTSELSKYLEEEAVRLFIEC(PEG20K)LK[AEEA][AEEA]YGWLDF-NH2 (not fully specified) [Compound 40] |  | 133 nM | 0.37 nM |  |
